Paper PMC9445081, “Structural basis for recognition of N-formyl peptides as pathogen-associated molecular patterns” (Nature Communications, 2022)
Changes are numbered by the printed parent chain.

What was measured:
Type in all cases: cell-based
FPR1 WT = biological target: T1, FPR1 WT (Homo sapiens, UniProt P21462); test: cAMP inhibition assay, WT FPR1
T1 construct: expressed in transfected cells; host or cells: HeLa cells, transient, pcDNA3.1(+)
T1 sequence (P21462 1-350): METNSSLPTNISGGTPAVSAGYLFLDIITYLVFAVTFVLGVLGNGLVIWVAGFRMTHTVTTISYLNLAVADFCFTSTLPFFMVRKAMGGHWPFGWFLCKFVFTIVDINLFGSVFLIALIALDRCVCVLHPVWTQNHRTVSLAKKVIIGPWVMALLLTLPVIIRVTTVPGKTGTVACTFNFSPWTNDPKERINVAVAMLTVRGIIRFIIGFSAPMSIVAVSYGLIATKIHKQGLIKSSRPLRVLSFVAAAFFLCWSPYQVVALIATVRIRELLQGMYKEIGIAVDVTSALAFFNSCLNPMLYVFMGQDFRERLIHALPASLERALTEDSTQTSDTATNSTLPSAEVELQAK
From the text: (§1) FPR1 cDNA in the pcDNA3.1(+) vector (Invitrogen) was used as a template for gene manipulation. The mutations of FPR1 were introduced in the receptor through overlap extension PCR with elaborately designed primers (GENEWIZ, Suzhou, China). The sequences of the primers were listed in Supplementary Table 2. Two fragments of FPR1 (separated at mutated positions) were assembled into pre-cut pcDNA3.1(+) vectors with the ClonExpress Ultra One Step Cloning Kit (Vazyme Biotech, C115). Plasmids with FPR1 mutations were confirmed by DNA sequencing (GENEWIZ).
(§2) For functional studies, FPR1 and its mutants were expressed in HeLa cells as above. The cells were resuspended in HBSS buffer plus 5 mM HEPES, 0.1% BSA (w/v) and 0.5 mM 3-isobutyl-1-methylxanthine and seeded into 384-well plates. […] AG-14 was synthesized by Sungening Biotechnology (Shenzhen, China). […] Intracellular cAMP levels were measured with the LANCE Ultra cAMP kit (PerkinElmer, TRF0263) following the manufacturer’s instructions. […] Intracellular cAMP levels were calculated according to the TR-FRET signals of the samples and cAMP standards.
(§3) The data were analyzed with Prism 6.0 (GraphPad, San Diego, CA). […] For cell surface expression, data points were presented as the percentages (mean ± SEM) of the flow cytometry fluorescence signals of WT FPR1. […]

FPR1 R201A = biological target: T2, FPR1 R201A (Homo sapiens, UniProt P21462, R201A); test: cAMP inhibition assay, FPR1 R201A
T2 construct: expressed in transfected cells; host or cells: HeLa cells, transient, pcDNA3.1(+)
T2 sequence (P21462 1-350 R201A): T1 sequence (P21462 1-350) with R201A
From the text: as §1, §2, §3

FPR1 R205A = biological target: T3, FPR1 R205A (Homo sapiens, UniProt P21462, R205A); test: cAMP inhibition assay, FPR1 R205A
T3 construct: expressed in transfected cells; host or cells: HeLa cells, transient, pcDNA3.1(+)
T3 sequence (P21462 1-350 R205A): T1 sequence (P21462 1-350) with R205A
From the text: as §1
as §2, with “China). Different concentrations of the ligands were prepared plus a fixed dose of forskolin with the buffer above.” for “China).”
(§4) The data were analyzed with Prism 6.0 (GraphPad, San Diego, CA). For dose-response analysis, the curves were plotted with the log[agonist] vs. response equation (three parameters) in the software. Data points were presented as the percentages (mean ± SEM) of the maximal cAMP level for each construct, from at least three independent experiments, as indicated in figure legends. The pEC50 values were the negative logarithm of the EC50 values, which were obtained from the dose-response curves. For cell surface expression, data points were presented as the percentages (mean ± SEM) of the flow cytometry fluorescence signals of WT FPR1. For statistical comparison, a p-value of 0.05 or lower is considered statistically significant.

FPR1 F291A = biological target: T4, FPR1 F291A (Homo sapiens, UniProt P21462, F291A); test: cAMP inhibition assay, FPR1 F291A
T4 construct: expressed in transfected cells; host or cells: HeLa cells, transient, pcDNA3.1(+)
T4 sequence (P21462 1-350 F291A): T1 sequence (P21462 1-350) with F291A
From the text: as §1
as §2, with “China). Different concentrations of the ligands were prepared plus a fixed dose of forskolin with the buffer above.” for “China).”
as §4

FPR1 R84A = biological target: T5, FPR1 R84A (Homo sapiens, UniProt P21462, R84A); test: cAMP inhibition assay, FPR1 R84A; conditions: inhibiting forskolin-elevated cAMP, HeLa cells, read-out: pEC50, mean ± SEM (converted)
T5 construct: expressed in transfected cells; host or cells: HeLa cells, transient, pcDNA3.1(+)
T5 sequence (P21462 1-350 R84A): T1 sequence (P21462 1-350) with R84A
From the text: as §1
as §2, with “China). Different concentrations of the ligands were prepared plus a fixed dose of forskolin with the buffer above.” for “China).”
as §4

FPR1 W254A = biological target: T6, FPR1 W254A (Homo sapiens, UniProt P21462, W254A); test: cAMP inhibition assay, FPR1 W254A; conditions: inhibiting forskolin-elevated cAMP, HeLa cells, read-out: pEC50, mean ± SEM (converted)
T6 construct: expressed in transfected cells; host or cells: HeLa cells, transient, pcDNA3.1(+)
T6 sequence (P21462 1-350 W254A): T1 sequence (P21462 1-350) with W254A
From the text: as §1, §2, §3

FPR1 Y257A = biological target: T7, FPR1 Y257A (Homo sapiens, UniProt P21462, Y257A); test: cAMP inhibition assay, FPR1 Y257A; conditions: inhibiting forskolin-elevated cAMP, HeLa cells, read-out: pEC50, mean ± SEM (converted)
T7 construct: expressed in transfected cells; host or cells: HeLa cells, transient, pcDNA3.1(+)
T7 sequence (P21462 1-350 Y257A): T1 sequence (P21462 1-350) with Y257A
From the text: as §1, §2, §3

- EC50 (FPR1 WT): 398 nM
- EC50 (FPR1 R201A): 1580 nM
- EC50 (FPR1 R205A): 1000 nM
- EC50 (FPR1 F291A): 2000 nM
- EC50 (FPR1 R84A): 1260 nM
- EC50 (FPR1 W254A): 5010 nM
- EC50 (FPR1 Y257A): 2510 nM
Compound: COc1cc(/C=N/NC(=O)c2ccc3c(c2)OCO3)ccc1OCc1ccccc1 [AG-14]
